Results reported in PMC6351529, “Novel carboxylate-based glycolipids: TLR4 antagonism, MD-2 binding and self-assembly properties” (Scientific Reports, 2019).

Experiments:
human MD-2 (hMD-2) = molecular target: T1, human MD-2 (hMD-2) (Homo sapiens, UniProt Q9Y6Y9); experiment: Surface plasmon resonance (SPR) on immobilized hMD-2; conditions: 1:1 Langmuir binding model, 25 °C
T1 construct: made in house; host or cells: Pichia pastoris
T1 sequence (Q9Y6Y9 19-160): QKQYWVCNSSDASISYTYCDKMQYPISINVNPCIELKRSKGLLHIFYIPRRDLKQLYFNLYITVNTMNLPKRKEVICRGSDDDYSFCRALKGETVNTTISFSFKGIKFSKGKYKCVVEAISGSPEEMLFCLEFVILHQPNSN
Procedure: SPR experimental curve optimal fitting was obtained by assuming 1:1 ligand/MD-2 binding stoichiometry.
The binding affinity of the compounds to recombinant hMD-2 was determined using a Biacore X100 with an NTA sensor chip (Biacore, GE Healthcare, Uppsala, Sweden). Briefly, 0.5 μM hMD-2 (in 50 mM TRIS, 150 mM NaCl, 0.5% Tween 20, pH 7.5) was immobilized onto the sensor chip previously activated with 1-min. pulse of 10 mM NiSO4. First flow cell was used as a reference surface to control non-specific binding. Both flow cells were injected with the analyte (in PBS, 5% DMSO, 5% EtOH, pH 7.5) at a flow rate of 10 μL/min at 25 °C in increasing concentrations. The data were analyzed with Biacore Evaluation software. KD values were calculated by global fitting of the equilibrium binding responses from various concentrations of analytes using a 1:1 Langmuir binding model.

human TLR4 = molecular target: T2, human TLR4 (Homo sapiens, UniProt O00206+Q9Y6Y9); experiment: Inhibition of LPS-stimulated TLR4 activation in HEK293-Blue hTLR4 cells (SEAP reporter); type: cell-based; conditions: LPS 100 ng/mL, 15 min pre-incubation, 16 h, serum-free DMEM
T2 construct: host or cells: HEK-Blue hTLR4 (HEK293)
From the text: Synthetic monosaccharides were screened for their capacity to activate or inhibit LPS-stimulated TLR4 activation in HEK293-Blue hTLR4 cells. HEK293-Blue hTLR4 cells are HEK cells transfected in order to express the human receptors involved in LPS detection process (TLR4, MD-2 and membrane-bound CD14) and an inducible SEAP (secreted embryonic alkaline phosphatase) reporter gene placed under the control of NF-kB and AP-1-transcription factors. Activation of the MyD88-dependent TLR4 pathway promotes the production and secretion of SEAP in the cell culture media, which can be easily quantified.
SEAP levels in cell culture media were quantified after 16 hours as indicator of TLR4 activation. Data were normalized to stimulation with LPS alone and fitted to a sigmoidal 4 parameter logistic equation to obtain dose-effect curves (left panel). […] Briefly, cells were cultured in DMEM high glucose medium supplemented with 10% fetal bovine serum (FBS), 2 mM glutamine, antibiotics and 1 × HEK-Blue Selection (InvivoGen). Cells were detached using a cell scraper, counted and seeded in a 96-well multiwell plate at a density of 4 × 10^4 cells per well. […] For the antagonism evaluation, cells were stimulated with LPS (100 ng/mL, E. coli O55:B5, Sigma-Aldrich) after compounds pre-treatment and incubated for 16 hours as above. The SEAP-containing supernatants were collected and incubated with para-nitrophenyl phosphate (pNPP) for 2−4 h in the dark at room temperature. The wells optical density was determined using a microplate reader (labtech LT-4000) set to 405 nm.

[1] = design: method as in PMID 24339336; conditions: cited from earlier work
C57BL/6 mice [2] = experiment: LPS-induced lung neutrophilia in mice, intratracheal administration; type: in vivo, mouse; conditions: 45 µg i.t. with 1 µg LPS, BAL after 16 h
Procedure: We therefore also explored the antagonistic capacity of FP13 in a different in vivo model, where LPS and FP13 were both administered locally in the lungs. Intratracheal (i.t.) instillation of LPS is known to cause an acute inflammatory response in mice, characterized by transient infiltration of neutrophils into the airways[57],[58].
PBS and vehicle were administered as controls. Mice were sacrificed 16 h later and neutrophilia in the BAL fluid was measured by flow cytometry. Error bars represent the standard deviation of the mean.

C57BL/6 mice [3] = experiment: LPS-induced serum TNFα in mice, compound i.p.; type: in vivo, mouse; conditions: 200 µg i.p., LPS 30 min later, serum after 4 h
Procedure: To further investigate whether carboxylate-based lipid A mimetics are able to inhibit LPS-induced signaling in vivo, we injected C57BL/6 mice i.p. with 200 µg of compound FP13 followed by the LPS injection 30 min later. […] The reason for this was unclear and we hypothesized poor distribution and absorption of the compound upon i.p. injection.
C57BL/6 mice were injected i.p. with 200 µg FP13. 30 min later, the mice were i.p. injected with 150 µg of Salmonella enterica LPS, or vehicle and PBS as controls. Mice were sacrificed 4 h later and serum was collected. Serum TNF concentration was determined by Luminex-based Bio-Plex Multiplex system. Error bars represent the standard deviation of the mean.

[4] = system: TLR4 signaling in RAW 264.7-Blue cells; experiment: LPS-induced TLR4 signaling in RAW 264.7-Blue cells (SEAP reporter, QUANTI-Blue); type: cell-based, murine
Procedure: To characterize the effect of synthetic compounds FP13-17 on cells naturally expressing TLR4, we used the murine macrophage RAW 264.7-Blue cell line, which are murine RAW 264.7 macrophages with chromosomal integration of SEAP reporter construct described in the previous section.
Figure 8 Inhibition of LPS-induced TLR4 signaling in RAW 264.7-Blue cells. […] SEAP reporter levels in the cell supernatant were determined by QuantiBlue Assay 24 h later. Error bars represent the standard deviation of the mean of technical triplicates. The graph is representative of at least three independent experiments.
Murine RAW 264.7-Blue cells (Invivogen) derived from the murine RAW 264.7 macrophages and stably expressing an NF-κB-inducible secreted alkaline phosphatase (SEAP) reporter gene were cultured in Dulbecco’s modified Eagle’s medium (DMEM), supplemented with 10% Fetal bovine serum (FBS), L-Glutamine (2 mM) and sodium pyruvate (0.4 mM), in the presence of selection antibiotic Zeocin (200 μg/mL). E. coli O111:B4 LPS was purchased from Invivogen. Bovine serum albumin (BSA) was purchased from Sigma-Aldrich. Compounds FP13-17 were reconstituted in DMSO/ethanol to provide a 10 mM stock solution. […] C57BL6/J mice were obtained from Janvier. […]
[…] 24 h later cell supernatants were analyzed for SEAP production by the QUANTI-Blue Assay (Invivogen).

T2 sequence (O00206 24-839, one chain of several): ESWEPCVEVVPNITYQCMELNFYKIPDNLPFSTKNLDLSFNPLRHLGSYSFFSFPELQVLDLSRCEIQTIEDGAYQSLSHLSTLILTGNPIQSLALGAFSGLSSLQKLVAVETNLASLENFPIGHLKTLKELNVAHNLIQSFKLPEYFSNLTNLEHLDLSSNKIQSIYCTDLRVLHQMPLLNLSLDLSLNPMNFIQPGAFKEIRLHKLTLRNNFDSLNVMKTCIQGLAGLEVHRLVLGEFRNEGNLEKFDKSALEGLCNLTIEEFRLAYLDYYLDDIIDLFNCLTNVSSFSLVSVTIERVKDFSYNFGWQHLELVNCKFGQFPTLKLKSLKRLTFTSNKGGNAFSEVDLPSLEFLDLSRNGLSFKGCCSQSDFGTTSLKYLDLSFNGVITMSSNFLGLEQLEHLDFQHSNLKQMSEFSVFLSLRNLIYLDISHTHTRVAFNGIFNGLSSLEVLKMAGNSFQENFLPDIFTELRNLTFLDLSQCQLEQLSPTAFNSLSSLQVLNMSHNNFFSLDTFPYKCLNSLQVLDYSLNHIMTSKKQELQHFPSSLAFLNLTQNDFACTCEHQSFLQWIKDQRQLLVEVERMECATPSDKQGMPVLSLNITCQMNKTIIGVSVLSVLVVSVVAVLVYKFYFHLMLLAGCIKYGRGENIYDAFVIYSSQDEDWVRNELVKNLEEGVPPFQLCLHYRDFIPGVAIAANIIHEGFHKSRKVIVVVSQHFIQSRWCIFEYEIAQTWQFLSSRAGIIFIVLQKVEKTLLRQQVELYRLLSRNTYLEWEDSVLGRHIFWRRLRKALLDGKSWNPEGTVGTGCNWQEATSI

Row | SMILES | Kd (human MD-2 (hMD-2)) [µM] | IC50 (human TLR4) [µM] | CMC [1] | effect on LPS-induced neutrophil infiltration into the airways (C57BL/6 mice [2]) | effect on LPS-induced serum TNFα levels (C57BL/6 mice [3]) | antagonistic activity in presence of serum ([4]; DMEM supplemented with 10% FBS) | antagonistic activity in presence of BSA ([4]; serum-free with 4 or 20 mg/mL BSA)
1 | CCCCCCCC/C=C\CCCCCCCC(=O)N[C@H]1[C@H](OC(=O)CCC(=O)O)O[C@H](CO)[C@@H](OC(=O)CCC(=O)O)[C@@H]1OC(=O)CCCCCCCCCCCCC [FP15] | 14 | 3.5 | – | – | – | – | –
2 | CCCCCCCCCCCCCC(=O)N[C@H]1[C@H](OC(=O)CCC(=O)O)O[C@H](CO)[C@@H](OC(=O)CCC(=O)O)[C@@H]1OC(=O)CCCCCCCCCCCCC [FP17] | 12 | 2.7 | – | – | – | – | –
3 | CCCCCCCCCCCCCC(=O)N[C@H]1[C@@H](OP(=O)(O)O)O[C@H](CO)[C@@H](OP(=O)(O)O)[C@@H]1OC(=O)CCCCCCCCCCCCC [FP7] | – | – | about 9 µM | – | – | – | –
4 | CCCCCCCC/C=C\CCCCCCCC(=O)N[C@H]1[C@H](OC(=O)CCC(=O)O)O[C@H](CO)[C@@H](OC(=O)CCC(=O)O)[C@@H]1OC(=O)CCCCCCC/C=C\CCCCCCCC [FP13] | 9 | 5.91 | – | failed to suppress | did not affect | completely neutralized | strongly decreased
5 | CCCCC/C=C\C/C=C\CCCCCCCC(=O)N[C@H]1[C@H](OC(=O)CCC(=O)O)O[C@H](CO)[C@@H](OC(=O)CCC(=O)O)[C@@H]1OC(=O)CCCCCCCCCCCCC [FP16] | 21 | 6.61 | – | – | – | – | –
6 | CCCCC/C=C\C/C=C\CCCCCCCC(=O)N[C@H]1[C@H](OC(=O)CCC(=O)O)O[C@H](CO)[C@@H](OC(=O)CCC(=O)O)[C@@H]1OC(=O)CCCCCCC/C=C\C/C=C\CCCCC [FP14] | 35 | 4.35 | – | – | – | – | –
